Here are results for 2 molecules from US8802149B2, “Systems and processes for spray drying hydrophobic and hydrophilic components” (Novartis Pharma AG, priority 1996, dated 2014).

This data set can be described thus: Solubility of drug and excipient in common organic solvent or cosolvent system. Type of data set: physicochemical. As to conditions: for solubility in Acetone (50%)/Water (50%) (by volume): solvent Acetone (50%)/Water (50%) by volume. An excerpt:
According to the third aspect of the present invention. an organic solvent or cosolvent is selected in which both the hydrophobic drug or other component and the hydrophilic excipient or other component may be dissolved. […] The solvent must further be selected to leave minimum residual solvent in the spray dried process and/or be capable of being adequately removed from the spray dried product. The particular organic solvent or cosolvent selected will depend on the nature of the hydrophobic drug and the hydrophilic excipient.
Each of these formulations has been spray dried and tested as described in further detail in the Experimental section hereinafter.

In the case of `CCCC1O[C@@H]2C[C@H]3[C@@H]4CCC5=CC(=O)C=C[C@]5(C)[C@H]4[C@@H](O)C[C@]3(C)[C@]2(C(=O)CO)O1` (some centres unmarked) [Budesonide], the “solubility in Acetone (50%)/Water (50%) (by volume)” value is listed as “(adequate solubility)”. Where the note is “solvent DMSO (33%)/Acetone (67%) by volume”, the “solubility in DMSO (33%)/Acetone (67%) (by volume)” value is on record as “(good solubility)”. The “solubility in Ethanol” value (solvent Ethanol) was “(adequate solubility)”. Besides, the “solubility in Methanol” value (solvent Methanol) is reported as “(good solubility)”.

On to `OC[C@@H](O)[C@@H](O)[C@H](O)[C@H](O)CO` [Mannitol], for which the “solubility in Acetone (50%)/Water (50%) (by volume)” value is “(adequate solubility)”.
